The values that follow come from ChEMBL document CHEMBL3045038, “Structure-based predictive model for some benzimidazole inhibitors of hepatitis C virus NS5B polymerase” (Med Chem Res, 2013).

The assay concerns the target RNA-directed RNA polymerase (Hepacivirus hominis, UniProt O39930). Description: Inhibition of Hepatitis C virus genotype 1 NS5B polymerases lacking C-terminal 47 amino acid residues expressed in Escherichia coli after 60 min.
Consider `NC(=O)c1ccc(-c2ccc(Cl)cc2)c(COc2ccc(-c3nc4cc(C(=O)O)ccc4n3C3CCCCC3)c(F)c2)c1`, for which the IC50 came to 13 nM. With `O=C(O)c1ccc2c(c1)nc(-c1ccc(OCc3cc(N4CCCC4=O)ccc3-c3ccc(Cl)cc3)cc1F)n2C1CCCCC1`, it took 12 nM to reach half-maximal inhibition (IC50). As for `Cc1ncc(COc2ccc(-c3nc4cc(C(=O)O)ccc4n3C3CCCCC3)c(F)c2)c(-c2ccc(Cl)cc2)n1`, the figure is 188 nM; as for `CC(=O)NC(=O)c1ccc(-c2ccc(Cl)cc2)c(COc2ccc(-c3nc4cc(C(=O)O)ccc4n3C3CCCCC3)c(F)c2)c1`, 14 nM.
